# Experimental data taken from patent publication US9771378B2 (Denali Therapeutics, Inc., priority 2014, dated 2017).
# System: Aβ42 (human neuroglioma H4 cells expressing human wild type APP751)
# Assay: In vitro cell screening assay with sandwich ELISA quantification of Aβ42 peptide
# Type: cell-based
# Conditions: H4 cells stably expressing human wild type APP751; Pro293 chemically defined medium; compounds 0.003-10 μM; incubated overnight (16-18 h); supernatant Aβ42 by sandwich ELISA; normalized to DMSO and DAPT; read-out: Aβ42 H4 Prot Fre IC50
# Procedure, shortened: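 H4 neuroglioma cells stably expressing human wild-type APP751 were treated in Pro293 medium with compounds (0.003-10 μM, 0.33% DMSO) for 16-18 h at 37° C. Secreted Aβ42 measured by sandwich ELISA (C-terminal capture, 4G8-HRP detection, TMB, 450 nm). IC50 by variable-slope sigmoidal regression on percent of DMSO control.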
row,Compound,IC50
1,"COc1ccc(C)c(C2COc3cnc(Nc4cnc(-n5cnc(C)c5)c(OC)c4)nc3N2C)c1 (single isomer, unassigned; (-)) [Example 207B]",96 nM
2,"COc1ccc(Cl)c(C2COc3cnc(Nc4cnc(-n5cnc(C)c5)c(OC)c4)nc3N2C)c1 (single isomer, unassigned; (-)) [Example 208B]",136 nM
3,"COc1ccc(C2COc3cnc(Nc4cnc(-n5cnc(C)c5)c(OC)c4)nc3N2C)c(Cl)c1 (single isomer, unassigned; (-)) [Example 209B]",55 nM
4,"Cc1cn(-c2ncc(Nc3ncc4c(n3)N(C)C(c3cc(F)cc(F)c3)CO4)cc2Cl)cn1 (single isomer, unassigned; (-)) [Example 210B]",2340 nM
5,"COc1cc(Nc2ncc3c(n2)N(C)C(c2cc(F)cc(F)c2)CO3)cnc1-n1cnc(C#N)c1 (single isomer, unassigned; (-)) [Example 211B, (−)-1-(5-((7-(3,5-difluorophenyl)-8-methyl-7,8-dihydro-6H-pyrimido [5,4-b] [1, 4]oxazin-2-yl)amino)-3-methoxypyridin-2-yl)-1H-imidazole-4-carbonitrile]",> 3000 nM
6,"COc1cc(Nc2ncc3c(n2)N(C)C(C2CC(F)(F)C2)CO3)ccc1-n1cnc(C)c1 (single isomer, unassigned; (-)) [Example 212A]",348 nM
7,"Cc1cn(-c2ccc(Nc3ncc4c(n3)N(C)C(C)CO4)cc2OC(F)(F)F)cn1 (single isomer, unassigned; (-)) [Example 213A]",> 3000 nM
8,"Cc1cn(-c2ccc(Nc3ncc4c(n3)N(C)C(C)CO4)cc2C(F)F)cn1 (single isomer, unassigned; (-)) [Example 214B]",2260 nM
9,"COc1ccc(C2COc3cnc(Nc4cnc(-n5cnc(C)c5)c(OC)c4)nc3N2C)c(C)c1 (single isomer, unassigned; (-)) [Example 215B]",96 nM
10,"COc1cc(Nc2ncc3c(n2)N(C)C(C2CCC(F)(F)CC2)CO3)ccc1-n1cnc(C)c1 (single isomer, unassigned; (-)) [Example 216A]",320 nM
11,"COc1cc(Nc2ncc3c(n2)N(C)C(C2CC(F)(F)C2)CO3)cnc1-n1cnc(C)c1 (single isomer, unassigned; (-)) [Example 219B]",398 nM
12,"COc1cc(Nc2ncc3c(n2)N(C)C(c2cc(F)cc(F)c2)CO3)ncc1-n1cnc(C)c1 (single isomer, unassigned; (-)) [Example 220A]",> 3000 nM
13,"COc1cc(Nc2ncc3c(n2)N(C)C(C2CCC(F)(F)CC2)CO3)cnc1-n1cnc(C)c1 (single isomer, unassigned; (-)) [Example 221B]",325 nM
14,"Cc1cn(-c2ccc(Nc3ncc4c(n3)N(C)C(c3cc(F)cc(F)c3)CO4)cc2C(F)F)cn1 (single isomer, unassigned; (-)) [Example 222B]",> 3000 nM
15,"Cc1cn(-c2ccc(Nc3ncc4c(n3)N(C)C(c3cc(F)cc(F)c3)CO4)cc2OC(F)(F)F)cn1 (single isomer, unassigned; (-)) [Example 223A]",> 3000 nM
16,"CN1c2nc(Nc3ccc(C#N)cc3)ncc2OCC1C(F)(F)F (single isomer, unassigned; (-)) [Example 226B, (−)-4-((8-methyl-7-(trifluoromethyl)-7,8-dihydro-6H-pyrimido [5,4-b] [1, 4]oxazin-2-yl)amino) benzonitrile]",> 3000 nM
17,"COc1cc(Nc2ncc3c(n2)N(C)C(C(F)(F)F)CO3)ccc1-n1cnc(Cl)c1 (single isomer, unassigned; (-)) [Example 228B]",14 nM
18,"Cc1cn(-c2ncc(Nc3ncc4c(n3)N(C)C(C(F)(F)F)CO4)cc2Cl)cn1 (single isomer, unassigned; (-)) [Example 229A]",215 nM
19,"COc1cc(Nc2ncc3c(n2)N(C)C(C(F)(F)F)CO3)ccc1C#N (single isomer, unassigned; (-)) [Example 230B, (−)-2-methoxy-4-((8-methyl-7-(trifluoromethyl)-7,8-dihydro-6H-pyrimido [5,4-b] [1, 4]oxazin-2-yl)amino) benzonitrile]",717 nM
20,"COc1cc(Nc2ncc3c(n2)N(C)C(C2CCC(F)(F)CC2)CO3)cnc1-c1cnn(C)c1 (single isomer, unassigned; (-)) [Example 231B]",> 3000 nM

row,Compound,IC50
1,"Cc1cn(-c2ccc(Nc3ncc4c(n3)N(C)C(C(F)(F)F)CO4)cc2C#N)cn1 (single isomer, unassigned; (-)) [Example 232B, (−)-2-(4-methyl-1H-imidazol-1-yl)-5-((8-methyl-7-(trifluoromethyl)-7,8-dihydro-6H-pyrimido [5,4-b] [1, 4]oxazin-2-yl)amino) benzonitrile]",17 nM
2,"CN1c2nc(Nc3ccc(C#N)cc3)ncc2OCC1c1cc(F)cc(F)c1 (single isomer, unassigned; (-)) [Example 233B, (−)-4-((7-(3,5-difluorophenyl)-8-methyl-7,8-dihydro-6H-pyrimido [5,4-b] [1, 4]oxazin-2-yl)amino) benzonitrile]",> 3000 nM
3,"COc1cc(Nc2ncc3c(n2)N(C)C(C(F)(F)F)CO3)ncc1-n1cnc(C)c1 (single isomer, unassigned; (-)) [Example 236B]",245 nM
4,"COc1cc(Nc2ncc3c(n2)N(C)C(c2cc(F)cc(F)c2)CO3)ccc1C#N (single isomer, unassigned; (-)) [Example 237A, (−)-4-((7-(3,5-difluorophenyl)-8-methyl-7,8-dihydro-6H-pyrimido [5,4-b] [1, 4]oxazin-2-yl)amino)-2-methoxybenzonitrile]",> 3000 nM
5,"COc1cc(Nc2ncc3c(n2)N(C)C(CC(F)(F)F)CO3)cnc1-n1cnc(C)c1 (single isomer, unassigned; (-)) [Example 238A]",648 nM
6,"COc1cc(Nc2ncc3c(n2)N(C)C(C2CCS(=O)(=O)CC2)CO3)ccc1-n1cnc(C)c1 (single isomer, unassigned; (-)) [Example 239A, (−)-4-(2-((3-methoxy-4-(4-methyl-1H-imidazol-1-yl)phenyl)amino)-8-methyl-7,8-dihydro-6H-pyrimido [5,4-b] [1, 4]oxazin-7-yl) tetrahydro-2H-thiopyran 1,1-dioxide]",407 nM
7,"COc1cc(Nc2ncc3c(n2)N(C)C(C2COC2)CO3)ccc1-n1cnc(C)c1 (single isomer, unassigned; (-)) [Example 241A]",390 nM
8,"COc1cc(Nc2ncc3c(n2)N(C)C(C(F)(F)F)CO3)ccc1-n1cnc(C)n1 (single isomer, unassigned; (-)) [Example 242A]",78 nM
9,"COc1cc(Nc2ncc3c(n2)N(C)C(C2COC2)CO3)cnc1-n1cnc(C)c1 (single isomer, unassigned; (-)) [Example 243B]",814 nM
10,"COc1cc(Nc2ncc3c(n2)N(C)C(c2cc(F)cc(F)c2)CO3)ccc1-n1cnc(C)n1 (single isomer, unassigned; (-)) [Example 244B]",935 nM
11,"COc1cc(Nc2ncc3c(n2)N(C)C(C2(C(F)(F)F)CC2)CO3)ccc1-n1cnc(C)c1 (single isomer, unassigned; (-)) [Example 245A]",216 nM
12,"COc1cc(Nc2ncc3c(n2)N(C)C(C2(C(F)(F)F)CC2)CO3)cnc1-n1cnc(C)c1 (single isomer, unassigned; (-)) [Example 247A]",252 nM
13,"Cc1cn(-c2ccc(Nc3ncc4c(n3)N3CCCC3CO4)cc2F)cn1 (single isomer, unassigned; (-)) [Example 289B]",157 nM
14,"COc1cc(Nc2ncc3c(n2)N2CCCC2CO3)ccc1-n1cnc(C)c1 (single isomer, unassigned; (-)) [Example 290A, (−)-N-(3-methoxy-4-(4-methyl-1H-imidazol-1-yl)phenyl)-6a, 7,8,9-tetrahydro-6H-pyrimido [5,4-b] pyrrolo [1,2-d] [1, 4] oxazin-2-amine]",71 nM
15,"COc1cc(Nc2ncc3c(n2)N2C(=O)CCC2CO3)cnc1-n1cnc(C)c1 (single isomer, unassigned; (-)) [Example 302B, (−)-2-((5-methoxy-6-(4-methyl-1H-imidazol-1-yl)pyridin-3-yl)amino)-6,6a, 7,8-tetrahydro-9H-pyrimido [5,4-b] pyrrolo [1,2-d] [1, 4] oxazin-9-one]",2900 nM
16,"COc1cc(Nc2ncc3c(n2)N2CCC(F)(F)C2CO3)ccc1-n1cnc(C)c1 (single isomer, unassigned; (-)) [Example 304A, (−)-7,7-difluoro-N-(3-methoxy-4-(4-methyl-1H-imidazol-1-yl)phenyl)-6a, 7,8,9-tetrahydro-6H-pyrimido [5,4-b] pyrrolo [1,2-d] [1, 4] oxazin-2-amine]",274 nM
17,"COc1cc(Nc2ncc3c(n2)N2CCC(F)(F)C2CO3)cnc1-n1cnc(C)c1 (single isomer, unassigned; (-)) [Example 305B, (−)-7,7-difluoro-N-(5-methoxy-6-(4-methyl-1H-imidazol-1-yl)pyridin-3-yl)-6a, 7,8,9-tetrahydro-6H-pyrimido [5,4-b] pyrrolo [1,2-d] [1, 4] oxazin-2-amine]",582 nM
18,"COc1cc(Nc2ncc3c(n2)N(C)[C@@H](c2ccccc2)CO3)ccc1-n1cnc(C)c1 [Example 21A, (S)—N-(3-methoxy-4-(4-methyl-1H-imidazol-1-yl)phenyl)-8-methyl-7-phenyl-7,8-dihydro-6H-pyrimido[5,4-b][1,4]oxazin-2-amine]",22 nM
19,"COc1cc(Nc2ncc3c(n2)N(C)[C@@H](c2ccccc2)CO3)ccc1-c1ccnc(C)c1 [Example 21B, (S)—N-(3-methoxy-4-(2-methylpyridin-4-yl)phenyl)-8-methyl-7-phenyl-7,8-dihydro-6H-pyrimido[5,4-b][1,4]oxazin-2-amine]",40 nM
20,"COc1cc(Nc2ncc3c(n2)N(C)[C@H](c2ccccc2)CO3)ccc1-n1cnc(C)c1 [Example 22A, (R)—N-(3-methoxy-4-(4-methyl-1H-imidazol-1-yl)phenyl)-8-methyl-7-phenyl-7,8-dihydro-6H-pyrimido[5,4-b][1,4]oxazin-2-amine]",87 nM
